Source: patent US7767659B2, “Synthesis of naturally occurring ecteinascidins and related compounds” (Pharma Mar, S.A., priority 2002, dated 2010)
Like-named read-outs stand apart in the source and are kept apart here.

What was measured:
A-549 = assay: cells
How it was run: (§1)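 Colorimetric SRB read (490 nm) on triplicate wells after 48 h at 37 °C, 5% CO2. Dose range 10 to 10^−8 μg/ml; 5×10^3 cells/well pre-attached 18 h.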

HT-29 = assay: cells
How it was run: as §1

LoVo = assay: cells; conditions: for GI50: read-out: LOVO GI50; for CC50: read-out: LOVO LC50
How it was run: as §1

DU-145 = assay: Inhibition of cells growth by colorimetric assay (SRB)
How it was run: as §1

HeLa-APL = assay: as above; conditions: for GI50: read-out: HELA-APL GI50; for CC50: read-out: HELA-APL LC50
How it was run: as §1

HeLa = assay: as above; conditions: for GI50: read-out: HELA GI50; for CC50: read-out: HELA LC50
How it was run: as §1

IGROV-1 = assay: as above; conditions: for GI50: read-out: IGROV GI50; for CC50: read-out: IGROV LC50
How it was run: as §1

IGROV-ET = assay: as above; conditions: for GI50: read-out: IGROV-ET GI50; for CC50: read-out: IGROV-ET LC50
How it was run: as §1

K-562 = assay: as above; conditions: for GI50: read-out: K562 GI50; for CC50: read-out: K562 LC50
How it was run: as §1

LNCaP = assay: as above
How it was run: as §1

LoVo-Dox = assay: as above; conditions: for GI50: read-out: LOVO-DOX GI50; for CC50: read-out: LOVO-DOX LC50
How it was run: as §1

PANC-1 = assay: as above; conditions: for GI50: read-out: PANC-1 GI50; for CC50: read-out: PANC-1 LC50
How it was run: as §1

SK-BR-3 = assay: as above; conditions: for GI50: read-out: SK-BR3 GI50; for CC50: read-out: SK-BR3 LC50
How it was run: as §1

SK-MEL-28 = assay: as above
How it was run: as §1

Compound: COc1ccc2[nH]c3c(c2c1)CCN[C@]31CS[C@@H]2c3c(OC(C)=O)c(C)c4c(c3[C@H](COC1=O)N1C2[C@@H]2N[C@@H](Cc3cc(C)c(OC)c(O)c32)[C@@H]1O)OCO4 (stereo partly drawn) [compound 64]
- GI50 (A-549; Homo sapiens, A549, 48 h, read-out: A549 GI50): 5.19 nM
- CC50 (A-549; Homo sapiens, A549, 48 h, read-out: A549 LC50): 1120 nM
- IC (TGI) (A-549; Homo sapiens, A549, 48 h, read-out: A549 TGI): 36.6 nM
- GI50 (HT-29; Homo sapiens, HT-29, 48 h, read-out: HT29 GI50): 3.58 nM
- CC50 (HT-29; Homo sapiens, HT-29, 48 h, read-out: HT29 LC50): 13000 nM
- IC (TGI) (HT-29; Homo sapiens, HT-29, 48 h, read-out: HT29 TGI): 13.2 nM
- GI50 (LoVo; Homo sapiens, LoVo, 48 h): 4.15 nM
- CC50 (LoVo; Homo sapiens, LoVo, 48 h): 12500 nM
- IC (TGI) (LoVo; Homo sapiens, LoVo, 48 h, read-out: LOVO TGI): 10.3 nM
- GI50 (DU-145; Homo sapiens, DU-145, 48 h, read-out: DU145 GI50): 2.89 nM
- CC50 (DU-145; Homo sapiens, DU-145, 48 h, read-out: DU145 LC50): 13000 nM
- IC (TGI) (DU-145; Homo sapiens, DU-145, 48 h, read-out: DU145 TGI): 153 nM
- GI50 (HeLa-APL; Homo sapiens, 48 h): 2.39 nM
- CC50 (HeLa-APL; Homo sapiens, 48 h): 9.63 nM
- IC (TGI) (HeLa-APL; Homo sapiens, 48 h, read-out: HELA-APL TGI): 4.8 nM
- GI50 (HeLa; Homo sapiens, HeLa, 48 h): 2.4 nM
- CC50 (HeLa; Homo sapiens, HeLa, 48 h): 10 nM
- IC (TGI) (HeLa; Homo sapiens, HeLa, 48 h, read-out: HELA TGI): 4.89 nM
- GI50 (IGROV-1; Homo sapiens, IGROV-1, 48 h): 1.78 nM
- CC50 (IGROV-1; Homo sapiens, IGROV-1, 48 h): 10.9 nM
- IC (TGI) (IGROV-1; Homo sapiens, IGROV-1, 48 h, read-out: IGROV TGI): 4.41 nM
- GI50 (IGROV-ET; Homo sapiens, 48 h): 34.8 nM
- CC50 (IGROV-ET; Homo sapiens, 48 h): 8300 nM
- IC (TGI) (IGROV-ET; Homo sapiens, 48 h, read-out: IGROV-ET TGI): 171 nM
- GI50 (K-562; Homo sapiens, K562, 48 h): 0.86 nM
- CC50 (K-562; Homo sapiens, K562, 48 h): 812 nM
- IC (TGI) (K-562; Homo sapiens, K562, 48 h, read-out: K562 TGI): 4.71 nM
- GI50 (LNCaP; Homo sapiens, LNCaP, 48 h, read-out: LNCAP GI50): 1.02 nM
- CC50 (LNCaP; Homo sapiens, LNCaP, 48 h, read-out: LNCAP LC50): 6.12 nM
- IC (TGI) (LNCaP; Homo sapiens, LNCaP, 48 h, read-out: LNCAP TGI): 2.67 nM
- GI50 (LoVo-Dox; Homo sapiens, 48 h): 320 nM
- CC50 (LoVo-Dox; Homo sapiens, 48 h): 13000 nM
- IC (TGI) (LoVo-Dox; Homo sapiens, 48 h, read-out: LOVO-DOX TGI): 2760 nM
- GI50 (PANC-1; Homo sapiens, PANC-1, 48 h): 2.46 nM
- CC50 (PANC-1; Homo sapiens, PANC-1, 48 h): 13000 nM
- IC (TGI) (PANC-1; Homo sapiens, PANC-1, 48 h, read-out: PANC-1 TGI): 10.9 nM
- GI50 (SK-BR-3; Homo sapiens, SK-BR-3, 48 h): 0.717 nM
- CC50 (SK-BR-3; Homo sapiens, SK-BR-3, 48 h): 13000 nM
- IC (TGI) (SK-BR-3; Homo sapiens, SK-BR-3, 48 h, read-out: SK-BR3 TGI): 150 nM
- GI50 (SK-MEL-28; Homo sapiens, SK-MEL-28, 48 h, read-out: MEL-28 GI50): 2.65 nM
- CC50 (SK-MEL-28; Homo sapiens, SK-MEL-28, 48 h, read-out: MEL-28 LC50): 20.5 nM
- IC (TGI) (SK-MEL-28; Homo sapiens, SK-MEL-28, 48 h, read-out: MEL-28 TGI): 6.24 nM

Compound: COc1c(C)cc2c(c1O)C1C3C4SCC(NC(C)=O)C(=O)OCC(c5c6c(c(C)c(OC(C)=O)c54)OCO6)N3C(C#N)C(C2)N1C(C)=O (stereo not drawn) [compound 35]
- TGI A549 (A-549; A549, SRB, 48 hours exposure): 5.96E−06 Molar
- GI50 (A-549; read-out: GI50 A549, A549, SRB, 48 hours exposure): 2930 nM
- CC50 (A-549; read-out: LC50 A549, A549, SRB, 48 hours exposure): 12100 nM
- TGI HT29 (HT-29; HT29, SRB, 48 hours exposure): 8.18E−06 Molar
- GI50 (HT-29; read-out: GI50 HT29, HT29, SRB, 48 hours exposure): 602 nM
- CC50 (HT-29; read-out: LC50 HT29, HT29, SRB, 48 hours exposure): 14400 nM
- LOVO TGI (LoVo; SRB assay, 48 hours exposure, LOVO, total growth inhibition): 2.14E−06 Molar
- GI50 (LoVo; SRB assay, 48 hours exposure, LOVO): 564 nM
- CC50 (LoVo; SRB assay, 48 hours exposure, LOVO, cell killing): 14400 nM
- TGI DU145 (DU-145; DU145, SRB, 48 hours exposure): 1.20E−06 Molar
- GI50 (DU-145; read-out: GI50 DU145, DU145, SRB, 48 hours exposure): 570 nM
- CC50 (DU-145; read-out: LC50 DU145, DU145, SRB, 48 hours exposure): 10300 nM
- HELA-APL TGI (HeLa-APL; SRB assay, 48 hours exposure, HELA-APL, total growth inhibition): 1.09E−06 Molar
- GI50 (HeLa-APL; SRB assay, 48 hours exposure, HELA-APL): 458 nM
- CC50 (HeLa-APL; SRB assay, 48 hours exposure, HELA-APL, cell killing): 5920 nM
- HELA TGI (HeLa; SRB assay, 48 hours exposure, HELA, total growth inhibition): 8.37E−07 Molar
- GI50 (HeLa; SRB assay, 48 hours exposure, HELA): 396 nM
- CC50 (HeLa; SRB assay, 48 hours exposure, HELA, cell killing): 3390 nM
- IGROV TGI (IGROV-1; SRB assay, 48 hours exposure, IGROV, total growth inhibition): 1.69E−06 Molar
- GI50 (IGROV-1; SRB assay, 48 hours exposure, IGROV): 420 nM
- CC50 (IGROV-1; SRB assay, 48 hours exposure, IGROV, cell killing): 8630 nM
- IGROV-ET TGI (IGROV-ET; SRB assay, 48 hours exposure, IGROV-ET, total growth inhibition): 6.35E−06 Molar
- GI50 (IGROV-ET; SRB assay, 48 hours exposure, IGROV-ET): 2300 nM
- CC50 (IGROV-ET; SRB assay, 48 hours exposure, IGROV-ET, cell killing): 14400 nM
- K562 TGI (K-562; SRB assay, 48 hours exposure, K562, total growth inhibition): 1.13E−06 Molar
- GI50 (K-562; SRB assay, 48 hours exposure, K562): 193 nM
- CC50 (K-562; SRB assay, 48 hours exposure, K562, cell killing): 9770 nM
- TGI LNCAP (LNCaP; LNCAP, SRB, 48 hours exposure): 3.97E−07 Molar
- GI50 (LNCaP; read-out: GI50 LNCAP, LNCAP, SRB, 48 hours exposure): 189 nM
- CC50 (LNCaP; read-out: LC50 LNCAP, LNCAP, SRB, 48 hours exposure): 834 nM
- LOVO-DOX TGI (LoVo-Dox; SRB assay, 48 hours exposure, LOVO-DOX, total growth inhibition): 1.44E−05 Molar
- GI50 (LoVo-Dox; SRB assay, 48 hours exposure, LOVO-DOX): 5750 nM
- CC50 (LoVo-Dox; SRB assay, 48 hours exposure, LOVO-DOX, cell killing): 14400 nM
- PANC-1 TGI (PANC-1; SRB assay, 48 hours exposure, PANC-1, total growth inhibition): 1.41E−06 Molar
- GI50 (PANC-1; SRB assay, 48 hours exposure, PANC-1): 471 nM
- CC50 (PANC-1; SRB assay, 48 hours exposure, PANC-1, cell killing): 14400 nM
- SK-BR3 TGI (SK-BR-3; SRB assay, 48 hours exposure, SK-BR3, total growth inhibition): 1.10E−06 Molar
- GI50 (SK-BR-3; SRB assay, 48 hours exposure, SK-BR3): 396 nM
- CC50 (SK-BR-3; SRB assay, 48 hours exposure, SK-BR3, cell killing): 9350 nM
- TGI MEL-28 (SK-MEL-28; MEL-28, SRB, 48 hours exposure): 8.63E−07 Molar
- GI50 (SK-MEL-28; read-out: GI50 MEL-28, MEL-28, SRB, 48 hours exposure): 390 nM
- CC50 (SK-MEL-28; read-out: LC50 MEL-28, MEL-28, SRB, 48 hours exposure): 3190 nM
